Test systems include A498 renal; EKVX NSCLC; HOP-92 NSCLC; MDA-N; NCI-H226 lung; NCI-H23 lung; RPMI-8226 leukemia; UACC-257 melanoma; UACC-62 melanoma; UO-31 renal; SNB-75 CNS.
Assay in all cases: NCI anticancer screen, dose series, 48 h

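How tested: cells in 96-well plates exposed to compound for 48 hours at five concentrations. TGI denotes the concentration required for complete inhibition of growth.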

The values that follow come from PubChem BioAssay (NCI).

Consider `O=C1CC(=Nc2ccc(Cl)cc2)C(c2ccccc2)N1c1ccccc1` (stereo unspecified), for which the TGI was greater than 100 µM in the assay on A498 renal; greater than 100 µM in the assay on EKVX NSCLC; 54.6 µM with HOP-92 NSCLC; 10.8 µM in the assay with MDA-N; 85.7 µM with NCI-H226 lung; 70.9 µM in the assay on NCI-H23 lung. In addition, the TGI is 13.1 µM in the assay on RPMI-8226 leukemia, greater than 100 µM in the assay with UACC-257 melanoma, 6.6 µM in the assay with UACC-62 melanoma and greater than 100 µM in the assay with UO-31 renal.

Regarding `Oc1ccc(-c2nc(-c3cccnc3)c(-c3ccc(Cl)cc3)[nH]2)cc1`, the TGI in the assay on EKVX NSCLC came to 27.4 µM; in the assay with MDA-N, 26.3 µM; in the assay on NCI-H226 lung, 33.3 µM; with NCI-H23 lung, 25.9 µM; in the assay with RPMI-8226 leukemia, 30 µM; in the assay on SNB-75 CNS it was 19.9 µM. The TGI in the assay on UACC-257 melanoma came out at 29.6 µM; in the assay on UACC-62 melanoma, 25.9 µM; in the assay on UO-31 renal, 22.9 µM.

For the compound `Cc1ccc(/C=C2\CCCc3ccccc3C2=O)cc1`, the TGI was 60.9 µM with EKVX NSCLC; 72.4 µM with HOP-92 NSCLC; 4.48 µM in the assay on MDA-N; 36.1 µM in the assay with NCI-H226 lung; 89.1 µM in the assay on NCI-H23 lung; 75 µM in the assay with RPMI-8226 leukemia. Further, the TGI is greater than 100 µM in the assay on SNB-75 CNS, greater than 100 µM in the assay on UACC-257 melanoma, 29.2 µM with UACC-62 melanoma and greater than 100 µM with UO-31 renal.

For the compound `NC(Cc1ccccc1)C(=O)N[C@H]1c2ccsc2/C(=N/O)[C@H]1O` (stereo partly specified), the TGI in the assay with A498 renal, in the assay on EKVX NSCLC, in the assay on HOP-92 NSCLC, with MDA-N, in the assay with NCI-H226 lung and in the assay with NCI-H23 lung was greater than 100 µM in each case. Also, the TGI in the assay with UACC-257 melanoma, in the assay on UACC-62 melanoma and in the assay on UO-31 renal was greater than 100 µM in each case.

Take `COc1cccc(-c2ccc3c4c2O[C@H]2C(=O)CC[C@@]5(O)[C@@H](C3)N(CC3CC3)CC[C@]425)c1`: the TGI with A498 renal was 34.1 µM; with EKVX NSCLC it was 41 µM; with HOP-92 NSCLC, 38.4 µM; in the assay on MDA-N, 39.3 µM; in the assay with NCI-H226 lung it was 26.8 µM; in the assay with NCI-H23 lung, 64.8 µM. The TGI in the assay with RPMI-8226 leukemia stood at 30.9 µM; in the assay on UACC-257 melanoma, 43.2 µM; in the assay with UACC-62 melanoma it was 32.7 µM; in the assay with UO-31 renal, 28.3 µM.

As for `O=C1CCC(c2ccc(Cl)cc2)=NN1c1nsc2ccccc12`, the TGI was 88.5 µM in the assay with EKVX NSCLC; 71.2 µM in the assay with HOP-92 NSCLC; greater than 100 µM in the assay with NCI-H23 lung; 42.6 µM in the assay with RPMI-8226 leukemia; 56 µM in the assay with SNB-75 CNS; 68.8 µM in the assay on UACC-257 melanoma. In addition, the TGI is greater than 100 µM in the assay on UACC-62 melanoma and 59.1 µM in the assay with UO-31 renal.

In the case of `NC(N)=N/N=C/c1c[nH]c2ccccc12`, the TGI in the assay on EKVX NSCLC, in the assay on NCI-H226 lung, with NCI-H23 lung, in the assay on RPMI-8226 leukemia, in the assay with SNB-75 CNS and with UACC-257 melanoma was greater than 100 µM in each case. The TGI with UACC-62 melanoma and in the assay on UO-31 renal was greater than 100 µM each time.

As to `O=C(N/N=C/c1ccccc1)c1c(-c2cccnc2)cnc2ccccc12`, the TGI in the assay with EKVX NSCLC, with HOP-92 NSCLC, with MDA-N, in the assay on NCI-H226 lung, in the assay with NCI-H23 lung and with RPMI-8226 leukemia was greater than 100 µM in each case. The TGI with SNB-75 CNS, in the assay on UACC-257 melanoma, in the assay on UACC-62 melanoma and in the assay on UO-31 renal was greater than 100 µM each time.

Consider `NN/C(=N\S(=O)(=O)c1cc2ccccc2s1)Nc1ccc(Cl)cc1`, for which the TGI in the assay with A498 renal came to 39.5 µM; in the assay with EKVX NSCLC, 42.2 µM; with HOP-92 NSCLC, 39.6 µM; in the assay on NCI-H226 lung, 36.5 µM; with NCI-H23 lung, 41.4 µM; with RPMI-8226 leukemia it was 35.6 µM. In addition, the TGI in the assay with SNB-75 CNS turned out to be 38.7 µM; in the assay with UACC-257 melanoma, 37.3 µM; in the assay on UACC-62 melanoma, 35.5 µM; in the assay on UO-31 renal, 32.1 µM.

Regarding `COC(CNC(=O)C(C)NC(=O)CCc1ccccc1)OC` (stereo unspecified), the TGI in the assay on EKVX NSCLC, in the assay on HOP-92 NSCLC, with MDA-N, in the assay on NCI-H226 lung, in the assay on NCI-H23 lung and with RPMI-8226 leukemia was greater than 100 µM each time. Further, the TGI in the assay on SNB-75 CNS, in the assay on UACC-257 melanoma, in the assay with UACC-62 melanoma and in the assay with UO-31 renal was greater than 100 µM throughout.

With `Cc1nc(-c2cc3cc([N+](=O)[O-])ccc3oc2=O)cs1`, the TGI is greater than 100 µM in the assay on EKVX NSCLC; greater than 100 µM with HOP-92 NSCLC; greater than 100 µM in the assay on MDA-N; greater than 100 µM in the assay with NCI-H226 lung; greater than 100 µM with RPMI-8226 leukemia; 94.8 µM with SNB-75 CNS. Moreover, the TGI in the assay with UACC-257 melanoma, in the assay on UACC-62 melanoma and with UO-31 renal was greater than 100 µM in each case.

In the case of `CC(C)=CCC/C(C)=C/C=C/C(C)=C/C=C/C(C)=C/C=C/C=C(C)/C=C/C=C(C)/C=C/[C@H]1C(C(C)(C)O)CC[C@]1(C)O` (stereo partly specified), the TGI is 84.8 µM with A498 renal; greater than 100 µM in the assay with EKVX NSCLC; 28.3 µM in the assay with HOP-92 NSCLC; 81.6 µM in the assay on MDA-N; greater than 100 µM in the assay with NCI-H226 lung; 72.7 µM with NCI-H23 lung. Besides, the TGI in the assay with RPMI-8226 leukemia stood at 54.5 µM; in the assay with UACC-257 melanoma, 59.2 µM; in the assay on UO-31 renal it was 47 µM.

`CCOC(=O)c1cc(C(O)P2(=O)N(CC(C)(C)C)[C@@H]3CCCC[C@H]3N2CC(C)(C)C)cn1C(=O)OC(C)(C)C` (stereo partly specified): the TGI in the assay on A498 renal was 65.3 µM; in the assay on EKVX NSCLC, 55.6 µM; in the assay with MDA-N, 28 µM; with NCI-H226 lung it was 39.4 µM; with NCI-H23 lung, 68.3 µM; in the assay with RPMI-8226 leukemia, 29.8 µM. In addition, the TGI with UACC-257 melanoma worked out at 28.7 µM; in the assay on UACC-62 melanoma, 28.6 µM; with UO-31 renal it was 28.7 µM.
